Measured values from PubChem BioAssay AID248 (DTP/NCI, 2004).
Where “and” joins values, the source holds several entries; their conditions need not be identical. Identical values can stand only once. Toxic doses and inconclusive results are not listed. Cut-off read from the data, not from the text of the source: active = T/C of 150% or more; inactive = T/C below 125%.

System: L1210 leukemia ip in BDF1 mice, survival T/C
Experiment: NCI In Vivo Anticancer Drug Screen. Data for tumor model L1210 Leukemia (intraperitoneal) in B6D2F1 (BDF1) mice
Conditions: endpoint: mean survival time, higher = longer survival
Procedure, shortened: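 Tumor was transplanted into mice, which were then dosed with test compound or vehicle alone. Survival was recorded for each group, and the treated figure was expressed relative to the control figure.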

[1] = dose: 100.0 mg/kg/injection, schedule: Q01DX009 (ip), vehicle: Klucel (hydroxypropylcellulose) (HPC)
[2] = dose: 100.0 mg/kg/injection, schedule: Q04DX003 (ip), vehicle: Klucel (hydroxypropylcellulose) (HPC)
[3] = dose: 200.0 mg/kg/injection, schedule: Q01DX009 (ip), vehicle: Klucel (hydroxypropylcellulose) (HPC)
[4] = dose: 200.0 mg/kg/injection, schedule: Q04DX003 (ip), vehicle: Klucel (hydroxypropylcellulose) (HPC)
[5] = dose: 400.0 mg/kg/injection, schedule: Q01DX009 (ip), vehicle: Klucel (hydroxypropylcellulose) (HPC)
[6] = dose: 400.0 mg/kg/injection, schedule: Q04DX003 (ip), vehicle: Klucel (hydroxypropylcellulose) (HPC)
[7] = dose: 75.0 mg/kg/injection, schedule: Q01DX001 (ip), vehicle: carboxymethylcellulose (CMC)
[8] = dose: 150.0 mg/kg/injection, schedule: Q01DX001 (ip), vehicle: carboxymethylcellulose (CMC)
[9] = dose: 300.0 mg/kg/injection, schedule: Q01DX001 (ip), vehicle: carboxymethylcellulose (CMC)
[10] = dose: 100.0 mg/kg/injection, schedule: Q01DX001 (ip), vehicle: saline
[11] = dose: 200.0 mg/kg/injection, schedule: Q01DX001 (ip), vehicle: saline
[12] = dose: 400.0 mg/kg/injection, schedule: Q01DX001 (ip), vehicle: saline
[13] = dose: 100.0 mg/kg/injection, schedule: Q01DX001 (ip), vehicle: carboxymethylcellulose (CMC)
[14] = dose: 200.0 mg/kg/injection, schedule: Q01DX001 (ip), vehicle: carboxymethylcellulose (CMC)
[15] = dose: 100.0 mg/kg/injection, schedule: Q01DX009 (ip), vehicle: saline with Tween-80
[16] = dose: 100.0 mg/kg/injection, schedule: Q04DX002 (ip), vehicle: saline with Tween-80
[17] = dose: 200.0 mg/kg/injection, schedule: Q04DX002 (ip), vehicle: saline with Tween-80
[18] = dose: 400.0 mg/kg/injection, schedule: Q04DX002 (ip), vehicle: saline with Tween-80
[19] = dose: 100.0 mg/kg/injection, schedule: Q04DX003 (ip), vehicle: saline with Tween-80
[20] = dose: 200.0 mg/kg/injection, schedule: Q01DX009 (ip), vehicle: saline with Tween-80
[21] = dose: 200.0 mg/kg/injection, schedule: Q04DX003 (ip), vehicle: saline with Tween-80
[22] = dose: 400.0 mg/kg/injection, schedule: Q01DX009 (ip), vehicle: saline with Tween-80
[23] = dose: 400.0 mg/kg/injection, schedule: Q04DX003 (ip), vehicle: saline with Tween-80
[24] = dose: 200.0 mg/kg/injection, schedule: Q04DX002 (ip), vehicle: Klucel (hydroxypropylcellulose) (HPC)

Measured: T/C

CN(C)CCCn1c2ccccc2c2cnccc21
inactive: dose: 50.0 mg/kg/injection, schedule: Q01DX009 (ip), vehicle: saline 100 % of control | dose: 100.0 mg/kg/injection, schedule: Q01DX009 (ip), vehicle: saline 89 % of control | dose: 100.0 mg/kg/injection, schedule: Q04DX003 (ip), vehicle: saline 97 % of control

O=C(O)C1CCC(CC23CC4CC(CC(C4)C2)C3)CC1 (configuration not stated)
inactive: [1] 108 % of control | [2] 103 % of control | [3] 103 % of control | [4] 105 % of control | [5] 109 % of control | [6] 101 % of control

CCOC(=O)N/N=C/c1c(F)cccc1Cl
inactive: [7] 101 % of control | [8] 106 % of control | [9] 101 % of control

CC1CN1P(=O)(OCCCl)N1CC1C (configuration not stated)
inactive: dose: 20.0 mg/kg/injection, schedule: Q01DX Z (ip), vehicle: saline 97 % of control | dose: 40.0 mg/kg/injection, schedule: Q01DX Z (ip), vehicle: saline 100 % of control | dose: 80.0 mg/kg/injection, schedule: Q01DX Z (ip), vehicle: saline 108 % of control | dose: 160.0 mg/kg/injection, schedule: Q01DX Z (ip), vehicle: saline 117 % of control

CC1C(C(=O)c2ccc(-c3ccccc3)cc2)N1C(C)(C)C (configuration not stated)
inactive: dose: 100.0 mg/kg/injection, schedule: Q01DX001 (ip), vehicle: Klucel (hydroxypropylcellulose) (HPC) 87 % of control | dose: 200.0 mg/kg/injection, schedule: Q01DX001 (ip), vehicle: Klucel (hydroxypropylcellulose) (HPC) 93 % of control | dose: 400.0 mg/kg/injection, schedule: Q01DX001 (ip), vehicle: Klucel (hydroxypropylcellulose) (HPC) 94 % of control

Oc1ccc(-c2nc3ccccc3nc2-c2ccc(O)cc2O)c(O)c1
inactive: [10] 96 % of control | [11] 93 % of control | [12] 96 % of control

CC1NCc2c(N)nc(N)nc21 (configuration not stated)
inactive: [13] 98 % of control | [14] 95 % of control | dose: 400.0 mg/kg/injection, schedule: Q01DX001 (ip), vehicle: carboxymethylcellulose (CMC) 98 % of control

CN(N)C(=O)Nc1cccc(Cl)c1
inactive: [7] 102 % of control | [8] 107 % of control | [9] 107 % of control

CC1(N)CCC(C(C)(C)N)CC1 (configuration not stated)
inactive: dose: 25.0 mg/kg/injection, schedule: Q01DX009 (ip), vehicle: saline with Tween-80 103 % of control | dose: 50.0 mg/kg/injection, schedule: Q01DX009 (ip), vehicle: saline with Tween-80 97 % of control | [15] 92 % of control

OC(c1ccccc1)C(c1ccccc1)C1CO1 (configuration not stated)
inactive: dose: 12.5 mg/kg/injection, schedule: Q01DX009 (ip), vehicle: DMSO 88 % of control | dose: 25.0 mg/kg/injection, schedule: Q01DX009 (ip), vehicle: DMSO 91 % of control | dose: 100.0 mg/kg/injection, schedule: Q04DX003 (ip), vehicle: other 103 % of control | dose: 200.0 mg/kg/injection, schedule: Q04DX003 (ip), vehicle: other 103 % of control | dose: 400.0 mg/kg/injection, schedule: Q04DX003 (ip), vehicle: other 94 % of control

O=[N+]([O-])c1ccccc1-c1ccccc1[N+](=O)[O-]
inactive: [16] 97 % of control | [17] 90 % of control | [18] 87 % of control

CCN(CC)CCOc1ccc(N)cc1
inactive: [10] 94 % of control | [11] 94 % of control | [12] 100 % of control

O=C(/C(=C\c1ccccc1)c1ccccc1)c1ccc(O)cc1
inactive: [10] 98 % of control | [11] 101 % of control | [12] 101 % of control

CCOC(=O)c1c(Cl)c(Cl)c(Cl)c(Cl)c1C(=O)OCC
inactive: [1] 105 % of control | [15] 101 % of control | [2] 90 % of control | [19] 100 % of control | [3] 104 % of control | [20] 90 % of control | [4] 95 % of control | [21] 104 % of control | [5] 100 % of control | [22] 93 % of control | [6] 105 % of control | [23] 102 % of control

C=CCNC(=S)NNC(=O)c1ccncc1
inactive: [1] 107 % of control | [3] 108 % of control | [5] 104 % of control

CC1(C)C2CCC1(CBr)C(=O)C2 (configuration not stated)
inactive: [24] 100 % of control

CN(C=O)c1cc([N+](=O)[O-])ccc1OCc1ccccc1
inactive: dose: 50.0 mg/kg/injection, schedule: Q01DX001 (ip), vehicle: saline 100 % of control | [10] 96 % of control | [11] 92 % of control | [12] 94 % of control

Cc1ccc(/C([O-])=C(\C(=S)Nc2cccc(C)c2)[n+]2ccccc2)cc1
inactive: [15] 103 % of control and 112 % of control | [16] 93 % of control and 95 % of control | [20] 93 % of control and 100 % of control | [17] 93 % of control and 115 % of control | [22] 95 % of control and 101 % of control | [18] 98 % of control and 107 % of control

BrC1(c2ccccc2)C(c2ccccc2)=C1c1ccccc1
inactive: dose: 50.0 mg/kg/injection, schedule: Q01DX001 (ip), vehicle: carboxymethylcellulose (CMC) 94 % of control | [13] 94 % of control | [14] 96 % of control

CCOC(=O)C1=C(O)c2c(sc(C)c2-c2ccccc2)N(S(=O)(=O)c2ccc(C)cc2)CC1
inactive: dose: 50.0 mg/kg/injection, schedule: Q04DX003 (ip), vehicle: saline with Tween-80 98 % of control | [19] 93 % of control | [21] 93 % of control | [23] 98 % of control

CN(C)CCN(CC(=O)O)CC(=O)O
inactive: [10] 100 % of control | [11] 102 % of control | [12] 100 % of control

O=C(NCC(O)CI)c1ccc([N+](=O)[O-])cc1 (configuration not stated)
inactive: [15] 104 % of control | [20] 102 % of control | [22] 89 % of control

CSC(C#N)NC(=O)c1ccc([N+](=O)[O-])cc1 (configuration not stated)
inactive: dose: 50.0 mg/kg/injection, schedule: Q04DX002 (ip), vehicle: Klucel (hydroxypropylcellulose) (HPC) 98 % of control | dose: 100.0 mg/kg/injection, schedule: Q04DX002 (ip), vehicle: Klucel (hydroxypropylcellulose) (HPC) 97 % of control and 109 % of control | [24] 98 % of control and 109 % of control
